Test results reported in patent US20220257698A1, “ANGIOTENSIN TYPE 2 (AT2) RECEPTOR AGONISTS FOR USE IN THE TREATMENT OF CANCER” (LANTHIOPEP B.V., priority 2019, published 2022).

Tested on: colon carcinoma PDX model Co9689A
Experiment: KcAng(1-7) on growth of colon carcinoma PDX Co9689A in mice
Assay type: in vivo, NMRI nu/nu mice (human PDX)
Settings: for T/C (treated tumor volume as percent of vehicle control): day 28 (day 41 of study)
Description: In vivo studies were conducted at EPO GmbH Berlin. Large studies (FIG. 1A, 2, 3, 4, 5) comprised 3 groups of 10 mice/group and 5 animals as reserve, as outlined in Table 1. Smaller studies (FIG. 1B, 1C, 1D) comprised 2 groups of mice of 3 mice per group. The animals were allocated to the various treatment groups (e.g. 0.2 μg/kg and 30 μg/kg) with a maximum of 10 animals per group. […] The groups received subcutaneous (s.c.) drug injection (for max. 28 days) as outlined in the Table 1.
NMRI nu/nu mice were used in this study. The animals were female at age of 6 to 8 weeks. The respective PDX tumors were inoculated subcutaneously (s.c.), and the tumors were grown to achieve palpable tumor sizes before start of the respective treatments. The PDX included breast (MaCa4151), colon (Co9689A), head & neck (HN10309), lung (Lu7433) and ovarian (OvCa13329) cancer (Table 2).
Treatment with KcAng(1-7) was started with palpable tumors after the randomization of animals regarding tumor volume. KcAng(1-7) was applied s.c. by daily injections at […] or 30 μg/kg dose for a maximum of 28 days (or earlier as defined by the humane end point for the study).
KcAng(1-7) was prepared as follows: The compounds was suspended in sterile PBS resulting in a clear solution. The remains of this formulation were stored at 4° C.
Tumor growth stimulatory or inhibitory activity of the KcAng(1-7) was evaluated by determination of tumor volumes (TV). During the study, tumor volumes and body weight were measured twice a week, and the ratio of the mean tumor volumes between the compound-treated group and the vehicle-treated group (T/C) was calculated.
Tumor volume=(tumor width)×(tumor width)×(tumor length)+2
T/C=T÷C • T: Mean estimated tumor volume of the compound-treated group • C: Mean estimated tumor volume of the vehicle-treated group

[1] = Gr. B 0.2 μg/kg/d s.c., Meas. 1
[2] = Gr. B 0.2 μg/kg/d s.c., Meas. 2
[3] = Gr. B 0.2 μg/kg/d s.c., Meas. 3
[4] = Gr. B 0.2 μg/kg/d s.c., Meas. 4
[5] = Gr. B 0.2 μg/kg/d s.c., Meas. 5
[6] = Gr. B 0.2 μg/kg/d s.c., Meas. 6
[7] = Gr. B 0.2 μg/kg/d s.c., Meas. 7
[8] = Gr. B 0.2 μg/kg/d s.c., Meas. 8
[9] = Gr. B 0.2 μg/kg/d s.c., Meas. 9 (day 28, day 41 of study)
[10] = Gr. C 30 μg/kg/d s.c., Meas. 9 (day 28, day 41 of study)

Lys-Asp-Arg-Val-Abu/Ala-Ile-His-Abu/Ala (KDRVAIHA; not fully specified; cyclic thioether (Abu/Ala bridge); VARIANT (5)..(5) /replace=“Abu”; VARIANT (8)..(8) /replace=“Abu”; SITE (1)..(8) /note=“Variant residues given in the sequence have no preference with respect to those in the annotations for variant positions”) [KcAng(1-7)]
T/C (treated tumor volume as percent of vehicle control) (0.2 μg/kg): 58% | T/C (treated tumor volume as percent of vehicle control) (30 μg/kg): 45% | effect on tumor growth (0.2 and 30 μg/kg, 28 days): statistically significant and dose dependent reduction in tumor growth | RTV Mean [1]: 1 | RTV Median [1]: 1 | T/C [1]: 99.5% | Tumor Vol. Mean [1]: 0.093 cm^3 | Tumor Vol. Median [1]: 0.09 cm^3 | RTV Mean [2]: 1.2 | RTV Median [2]: 1.2 | T/C [2]: 90.3% | Tumor Vol. Mean [2]: 0.107 cm^3 | Tumor Vol. Median [2]: 0.108 cm^3 | RTV Mean [3]: 1.4 | RTV Median [3]: 1.4 | T/C [3]: 87.4% | Tumor Vol. Mean [3]: 0.132 cm^3 | Tumor Vol. Median [3]: 0.126 cm^3 | RTV Mean [4]: 2 | RTV Median [4]: 1.9 | T/C [4]: 87.1% | Tumor Vol. Mean [4]: 0.188 cm^3 | Tumor Vol. Median [4]: 0.139 cm^3 | RTV Mean [5]: 2.7 | RTV Median [5]: 2.6 | T/C [5]: 84.6% | Tumor Vol. Mean [5]: 0.252 cm^3 | Tumor Vol. Median [5]: 0.234 cm^3 | RTV Mean [6]: 2.8 | RTV Median [6]: 2.7 | T/C [6]: 80.7% | Tumor Vol. Mean [6]: 0.267 cm^3 | Tumor Vol. Median [6]: 0.238 cm^3 | RTV Mean [7]: 3.2 | RTV Median [7]: 2.8 | T/C [7]: 71.6% | Tumor Vol. Mean [7]: 0.272 cm^3 | Tumor Vol. Median [7]: 0.214 cm^3 | RTV Mean [8]: 2 | RTV Median [8]: 1.9 | T/C [8]: 58.6% | Tumor Vol. Mean [8]: 0.192 cm^3 | Tumor Vol. Median [8]: 0.178 cm^3 | RTV Mean [9]: 2.7 | RTV Median [9]: 2.5 | T/C [9]: 58.1% | Tumor Vol. Mean [9]: 0.257 cm^3 | Tumor Vol. Median [9]: 0.219 cm^3 | RTV Mean (Gr. C 30 μg/kg/d s.c., Meas. 1): 1 | RTV Median (Gr. C 30 μg/kg/d s.c., Meas. 1): 1 | T/C (Gr. C 30 μg/kg/d s.c., Meas. 1): 99.5% | Tumor Vol. Mean (Gr. C 30 μg/kg/d s.c., Meas. 1): 0.093 cm^3 | Tumor Vol. Median (Gr. C 30 μg/kg/d s.c., Meas. 1): 0.097 cm^3 | RTV Mean (Gr. C 30 μg/kg/d s.c., Meas. 2): 1.2 | RTV Median (Gr. C 30 μg/kg/d s.c., Meas. 2): 1.2 | T/C (Gr. C 30 μg/kg/d s.c., Meas. 2): 91.5% | Tumor Vol. Mean (Gr. C 30 μg/kg/d s.c., Meas. 2): 0.108 cm^3 | Tumor Vol. Median (Gr. C 30 μg/kg/d s.c., Meas. 2): 0.105 cm^3 | RTV Mean (Gr. C 30 μg/kg/d s.c., Meas. 3): 1.3 | RTV Median (Gr. C 30 μg/kg/d s.c., Meas. 3): 1.3 | T/C (Gr. C 30 μg/kg/d s.c., Meas. 3): 80.9% | Tumor Vol. Mean (Gr. C 30 μg/kg/d s.c., Meas. 3): 0.122 cm^3 | Tumor Vol. Median (Gr. C 30 μg/kg/d s.c., Meas. 3): 0.111 cm^3 | RTV Mean (Gr. C 30 μg/kg/d s.c., Meas. 4): 1.7 | RTV Median (Gr. C 30 μg/kg/d s.c., Meas. 4): 1.5 | T/C (Gr. C 30 μg/kg/d s.c., Meas. 4): 72.1% | Tumor Vol. Mean (Gr. C 30 μg/kg/d s.c., Meas. 4): 0.156 cm^3 | Tumor Vol. Median (Gr. C 30 μg/kg/d s.c., Meas. 4): 0.125 cm^3 | RTV Mean (Gr. C 30 μg/kg/d s.c., Meas. 5): 2.2 | RTV Median (Gr. C 30 μg/kg/d s.c., Meas. 5): 2.3 | T/C (Gr. C 30 μg/kg/d s.c., Meas. 5): 68.6% | Tumor Vol. Mean (Gr. C 30 μg/kg/d s.c., Meas. 5): 0.205 cm^3 | Tumor Vol. Median (Gr. C 30 μg/kg/d s.c., Meas. 5): 0.184 cm^3 | RTV Mean (Gr. C 30 μg/kg/d s.c., Meas. 6): 2.5 | RTV Median (Gr. C 30 μg/kg/d s.c., Meas. 6): 2.4 | T/C (Gr. C 30 μg/kg/d s.c., Meas. 6): 72.5% | Tumor Vol. Mean (Gr. C 30 μg/kg/d s.c., Meas. 6): 0.24 cm^3 | Tumor Vol. Median (Gr. C 30 μg/kg/d s.c., Meas. 6): 0.199 cm^3 | RTV Mean (Gr. C 30 μg/kg/d s.c., Meas. 7): 3 | RTV Median (Gr. C 30 μg/kg/d s.c., Meas. 7): 2.8 | T/C (Gr. C 30 μg/kg/d s.c., Meas. 7): 75.6% | Tumor Vol. Mean (Gr. C 30 μg/kg/d s.c., Meas. 7): 0.287 cm^3 | Tumor Vol. Median (Gr. C 30 μg/kg/d s.c., Meas. 7): 0.213 cm^3 | RTV Mean (Gr. C 30 μg/kg/d s.c., Meas. 8): 2.2 | RTV Median (Gr. C 30 μg/kg/d s.c., Meas. 8): 1.9 | T/C (Gr. C 30 μg/kg/d s.c., Meas. 8): 63.3% | Tumor Vol. Mean (Gr. C 30 μg/kg/d s.c., Meas. 8): 0.208 cm^3 | Tumor Vol. Median (Gr. C 30 μg/kg/d s.c., Meas. 8): 0.155 cm^3 | RTV Mean [10]: 2.1 | RTV Median [10]: 1.8 | T/C [10]: 45.3% | Tumor Vol. Mean [10]: 0.201 cm^3 | Tumor Vol. Median [10]: 0.134 cm^3 | retarded tumor growth (colon carcinoma PDX upon treatment as in Example 1): ~40%
